Measured values from US20080249129A1, “Compositions and Methods for Treatment of Protein Misfolding Diseases” (priority 2004, published 2008).
Where a name gives a salt, the structure may show the parent alone. Read-outs that look alike come from different tables or passages of the source. Peptide text beside a SMILES is read from it.

Key:
Format in all cases: cell-based
[1] = test system: yeast expressing two copies of alpha synuclein
Source text: (§1) An exemplary aS-expressing yeast cell for use in a growth rescue screen described herein is yeast expressing two copies of aS, as described in Outeiro et al. (2003) Science 302:1772. An exemplary htt-expressing strain for use in a growth rescue screen described herein is yeast expressing a fusion protein comprising a FLAG tag and an expanded htt polyQ (103) domain, as described in Meriin et al. (2002) J. Cell Biol. 158:591.
(§2) Phenotype MicroArray™ (Biolog, Inc., Hayward, Calif.) was employed to evaluate the effects of various compounds in yeast expressing one or two copies of alpha synuclein.

[2] = test system: yeast expressing a toxic amount and form of huntingtin
Source text: as §1
(§3) Phenotype MicroArray™ (Biolog, Inc., Hayward, Calif.) was employed to evaluate the ability of various compounds to rescue viability in yeast expressing a toxic amount and form of huntingtin. […] Bioscreen C MBR (Labsystem Corp, Helsinki, Finland) was also used to evaluate the effects of the clioquinols.

[3] = test system: yeast expressing a toxic amount and form of huntingtin; remark: listed apart in the source
Source text: For example, the Bioscreen-C system (Labsystem Corp, Helsinki, Finland) permits the growth of up to 200 cell cultures at the same time, under different conditions. Growth rates are monitored optically, recorded automatically, and stored as digital files for further manipulations. […] Mutants and chemicals from a variety of sources will be tested.
as §3

[4] = test system: yeast expressing one copy of alpha synuclein
Source text: as §2

[5] = yeast expressing toxic huntingtin, Phenotype MicroArray
[6] = yeast expressing toxic huntingtin, Bioscreen C MBR
[7] = yeast expressing one copy of alpha synuclein, Phenotype MicroArray
[8] = yeast expressing two copies of alpha synuclein, Phenotype MicroArray

Compound: CCC(O)C(=O)O (racemic) [D,L-a-hydroxy-butyric acid]
- effect on alpha synuclein-mediated toxicity [1]: suppressors of alpha synuclein-mediated toxicity

Compound: Cc1ccc2c(Cl)cc(Cl)c(O)c2n1 [5,7-Dichloro-8-hydroxy-quinaldine]
- effect on huntingtin-mediated toxicity (rescue of viability) [2, 5]: suppressors of huntingtin-mediated toxicity
- effect on huntingtin-mediated toxicity [3, 6]: alleviated huntingtin-mediated toxicity

Compound: O=[N+]([O-])c1ccc(O)c2ncccc12 [8-Hydroxy-5-nitroquinoline]
- effect on huntingtin-mediated toxicity (rescue of viability) [2, 5]: suppressors of huntingtin-mediated toxicity
- effect on huntingtin-mediated toxicity [3, 6]: alleviated huntingtin-mediated toxicity

Compound: Oc1cccc2cccnc12 [8-Hydroxyquinoline]
- effect on huntingtin-mediated toxicity (rescue of viability) [2]: suppressors of huntingtin-mediated toxicity
- effect on huntingtin-mediated toxicity [3]: alleviated huntingtin-mediated toxicity

Compound: CCCCCCCCCCCCC/C=C/[C@@H](O)[C@@H](N)CO [D-Sphingosine]
- effect on alpha synuclein-mediated toxicity [4, 7]: enhancers of alpha synuclein-mediated toxicity

Compound: CC[C@H](C)[C@H](N)C(=O)O [L-Isoleucine]
- effect on alpha synuclein-mediated toxicity [4, 7]: enhancers of alpha synuclein-mediated toxicity

Compound: CSCC[C@H](NC(=O)[C@@H](N)Cc1ccccc1)C(=O)O [Phe-Met] (H-Phe-Met-OH)
- effect on alpha synuclein-mediated toxicity [4, 7]: enhancers of alpha synuclein-mediated toxicity

Compound: COc1ccc(C[C@H]2NC[C@H](O)[C@H]2OC(C)=O)cc1 [anisomycin]
- effect on alpha synuclein-mediated toxicity [4, 7]: enhancers of alpha synuclein-mediated toxicity

Compound: CC1=C(C(=O)Nc2ccccc2)SCCO1 [carboxin]
- effect on alpha synuclein-mediated toxicity [4, 7]: enhancers of alpha synuclein-mediated toxicity

Compound: COc1ccc2c(c[n+](C)c3c4cc5c(cc4ccc23)OCO5)c1OC [chelerythrine]
- effect on alpha synuclein-mediated toxicity [4, 7]: enhancers of alpha synuclein-mediated toxicity

Compound: CN(C)C(=O)/N=N/C(=O)N(C)C [diamide]
- effect on alpha synuclein-mediated toxicity [4, 7]: enhancers of alpha synuclein-mediated toxicity

Compound: OP(O)(=S)S [dithiophosphate]
- effect on alpha synuclein-mediated toxicity [4, 7]: enhancers of alpha synuclein-mediated toxicity

Compound: CCCCCCCCCCCC[N+](C)(C)C.[Br-] [dodecyltrimethyl ammonium bromide]
- effect on alpha synuclein-mediated toxicity [4, 7]: enhancers of alpha synuclein-mediated toxicity

Compound: N=C(N)N [guanidine hydrochloride]
- effect on huntingtin-mediated toxicity (rescue of viability) [2, 5]: suppressors of huntingtin-mediated toxicity

Compound: Oc1c(Cl)cc(Cl)c(Cl)c1Cc1c(O)c(Cl)cc(Cl)c1Cl [hexachlorophene]
- effect on alpha synuclein-mediated toxicity [1]: suppressors of alpha synuclein-mediated toxicity

Compound: CC(C)Cc1ccc(C(C)C(=O)O)cc1 (stereo not drawn) [ibuprofen]
- effect on alpha synuclein-mediated toxicity [1]: suppressors of alpha synuclein-mediated toxicity

Compound: Cc1cccc(O)c1 [m-cresol]
- effect on alpha synuclein-mediated toxicity [1, 8]: suppressors of alpha synuclein-mediated toxicity
- effect on huntingtin-mediated toxicity (rescue of viability) [2, 5]: suppressors of huntingtin-mediated toxicity

Compound: CC[C@@]1([C@@H]2O[C@@H]([C@H]3O[C@@](O)(CO)[C@H](C)C[C@@H]3C)C[C@@H]2C)CC[C@H]([C@]2(C)CC[C@]3(C[C@H](O)[C@@H](C)[C@@H]([C@@H](C)[C@@H](OC)[C@H](C)C(=O)O)O3)O2)O1 [monensin]
- effect on alpha synuclein-mediated toxicity [4, 7]: enhancers of alpha synuclein-mediated toxicity

Compound: CC(Cc1ccc(O)c(O)c1)C(C)Cc1ccc(O)c(O)c1 (stereo not drawn) [nordihydroguaiaretic acid]
- effect on alpha synuclein-mediated toxicity [1]: suppressors of alpha synuclein-mediated toxicity
- effect on huntingtin-mediated toxicity (rescue of viability) [2]: suppressors of huntingtin-mediated toxicity

Compound: CC1=C(C(=O)Nc2ccccc2)S(=O)(=O)CCO1 [oxycarboxin]
- effect on alpha synuclein-mediated toxicity [4, 7]: enhancers of alpha synuclein-mediated toxicity

Compound: CC1=CC(=O)c2c(O)cccc2C1=O [plumbagin]
- effect on alpha synuclein-mediated toxicity [4, 7]: enhancers of alpha synuclein-mediated toxicity

Compound: O=C([O-])c1ccccc1.[Na+] [sodium benzoate pH 5.2, sodium benzoate]
- effect on alpha synuclein-mediated toxicity [4, 7]: enhancers of alpha synuclein-mediated toxicity

Compound: O=[Si]([O-])[O-].[Na+].[Na+] [sodium metasilicate]
- effect on alpha synuclein-mediated toxicity [1, 8]: suppressors of alpha synuclein-mediated toxicity

Compound: O=S([O-])([O-])=S.[Na+].[Na+] [sodium thiosulfate]
- effect on alpha synuclein-mediated toxicity [4]: enhancers of alpha synuclein-mediated toxicity

Compound: OP(O)(O)=S [thiophosphate]
- effect on alpha synuclein-mediated toxicity [4, 7]: enhancers of alpha synuclein-mediated toxicity

Compound: ruthenium red
- effect on alpha synuclein-mediated toxicity [1, 8]: suppressors of alpha synuclein-mediated toxicity

Compound: sodium metavanadate
- effect on alpha synuclein-mediated toxicity [1]: suppressors of alpha synuclein-mediated toxicity

Compound: sodium phosphate [sodium phosphate pH 7]
- effect on alpha synuclein-mediated toxicity [4]: enhancers of alpha synuclein-mediated toxicity
